Assay in all cases: relative viability (nuclei count vs DMSO), 5 days (fraction); higher = more cells survive
Compound in test [1]: CC1=C(CC(=O)O)c2cc(F)ccc2/C1=C\c1ccc([S+](C)[O-])cc1 [Sulindac] + CC(=O)Nc1cccc(-n2c(=O)n(C3CC3)c(=O)c3c(Nc4ccc(I)cc4F)n(C)c(=O)c(C)c32)c1 [Trametinib] (partner 0.02 µM)
In outline: (§1)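 Relative viability equals treated-well nuclei counts divided by vehicle-well nuclei counts. Counts came from 4× images of lung cancer cell lines grown in 1536-well plates for 5 days after pin-tool dosing on the day after seeding. Dosing used one drug alone or a fixed anchor-drug dose plus five library-drug doses (not always all listed) in √10 steps, and values are medians of duplicate plates.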

Compound in test [2]: CN[C@@H]1C[C@H]2O[C@@](C)([C@@H]1OC)n1c3ccccc3c3c4c(c5c6ccccc6n2c5c31)C(=O)NC4 [Staurosporine] + CCNC(=O)c1noc(-c2cc(C(C)C)c(O)cc2O)c1-c1ccc(CN2CCOCC2)cc1 [Luminespib] (partner 0.01 µM)
In outline: as §1

Compound in test [3]: O=c1[nH]cc(F)c(=O)[nH]1 [5-Fluorouracil] + CC(=O)Nc1cccc(-n2c(=O)n(C3CC3)c(=O)c3c(Nc4ccc(I)cc4F)n(C)c(=O)c(C)c32)c1 [Trametinib] (partner 0.02 µM)
The procedure, abridged: as §1

Compound in test [4]: O=c1[nH]cc(F)c(=O)[nH]1 [5-Fluorouracil] + COc1cccc2cc(-c3nc([C@H]4CC[C@H](C(=O)O)CC4)n4ncnc(N)c34)[nH]c12 [OSI-027] (partner 0.5 µM)
In outline: as §1

Compound in test [5]: O=c1[nH]cc(F)c(=O)[nH]1 [5-Fluorouracil] + Cc1nc(NC(=O)N2CCC[C@H]2C(N)=O)sc1-c1ccnc(C(C)(C)C(F)(F)F)c1 [Alpelisib] (partner 2 µM)
The procedure, abridged:
as §1

Consider 1 cell line from the supplement of paper PMC10307832.

As to UMC-11, the relative viability in test [1] (first compound 0.08 µM) worked out at 0.733; in test [1] (first compound 0.253 µM) it was 0.764; in test [1] (first compound 0.8 µM), 0.679; in test [1] (first compound 2.53 µM), 0.654; in test [1] (first compound 8 µM), 0.757; in test [2] (first compound 0.005 µM) it was 0.894. Also, the relative viability in test [2] (first compound 0.01581 µM) was found to be 0.487; in test [2] (first compound 0.05 µM) it was 0.223; in test [2] (first compound 0.1581 µM), 0.135; in test [2] (first compound 0.5 µM), 0.0992; in test [3] (first compound 0.02 µM) it was 0.711; in test [3] (first compound 0.2 µM) it was 0.673. Further, the relative viability in test [3] (first compound 0.6325 µM) amounted to 0.448; in test [4] (first compound 0.02 µM) it was 0.445; in test [4] (first compound 0.2 µM), 0.477; in test [4] (first compound 0.6325 µM), 0.406; in test [4] (first compound 2 µM), 0.372; in test [5] (first compound 0.02 µM) it was 0.792. The relative viability in test [5] (first compound 0.2 µM) was 0.645; in test [5] (first compound 2 µM), 0.326.
